This note sets out measurements from PMC9223062, “Purification and Characterization of a Dark Red Skin Related Dimeric Polyphenol Oxidase from Huaniu Apples” (Foods, 2022).

In assay [1] the test system is T1, dimeric PPO from Huaniu apple peel.
T1 construct: gene PPO2; native, purified from fruit peel (ammonium sulfate, DEAE-sepharose, Sephadex G-200); soluble PPO; about 140 kDa by native-PAGE and SDS-PAGE, 61 kDa monomer by urea-SDS-PAGE, homodimer
Nature of the assay: spectrophotometric oxidation assay, Lineweaver-Burk. The format is biochemical, Malus domestica. Conditions: pH 5.0 citrate phosphate buffer, 25 °C. The text has this:
spectrophotometric oxidation assay, Lineweaver-Burk on dimeric PPO from Huaniu apple peel

The test system is the same in assay [2]. Put plainly: spectrophotometric oxidation assay at […] nm, Lineweaver-Burk. The format is biochemical, Malus domestica. Conditions: pH 5.0 citrate phosphate buffer, 25 °C; abstract 1.17, b44 prints 1.16.

Turning to `Cc1ccc(O)c(O)c1` [4-methylcatechol], in assay [1], the Michaelis constant (Km) was found to be 2470 µM.

Regarding `Oc1cc(O)c2c(c1)O[C@H](c1ccc(O)c(O)c1)[C@@H](O)C2` [CT, (+)-catechin], in assay [1], the Km was determined as 4630 µM.

With `Oc1cc(O)c2c(c1)O[C@H](c1ccc(O)c(O)c1)[C@H](O)C2` [EC, (−)-epicatechin], in assay [2], the Km is 1170 µM.

As to `Oc1ccccc1O` [catechol], the Michaelis constant (Km) in assay [1] (text prints 0.60) was 610 µM.

On to `O=C(/C=C/c1ccc(O)c(O)c1)O[C@@H]1C[C@](O)(C(=O)O)C[C@@H](O)[C@H]1O` [chlorogenic acid], for which the Km in assay [1] (text b44 prints 1.29, table value agrees with its Vmax/Km) turned out to be 2220 µM.

The Km is the substrate concentration at which the rate is half of its maximum.
